# Data published in patent US20060281755A1, “SYNERGISTIC MODULATION OF FLT3 KINASE USING AMINOPYRIMIDINES KINASE MODULATORS” (priority 2005, published 2006).
# Legend:
# Baf3-FLT3 cells = experiment: 72-hour cell proliferation assay and combination index analysis, Baf3-FLT3; format: cell-based, murine; details: with single sub-IC50 dose of FLT3 inhibitor Compound A (100 nM)
# Method: (§1) Dose responses for the individual compounds alone were determined for each cell line using a standard 72-hour cell proliferation assay (see FIGS. 6.1-6.8). […] Each of these chemically distinct compounds alone has potential for the treatment of disorders related to FLT3, such as FLT3 positive AML. […] The FLT3 inhibitors tested had no effect on THP-1 proliferation. […] (See FIGS. 10.1-10.8 and Tables 1-3, hereafter.)
# (§2) To statistically evaluate the synergy of a FLT3 inhibitor and an FTI in FLT3 dependent cell lines, dosing combinations were evaluated by the method of Chou and Talalay. See Chou T C, Talalay P. (1984) “Quantitative analysis of dose-effect relationships: the combined effects of multiple drugs or enzyme inhibitors.” Adv Enzyme Regul. 22:27-55. Using this method inhibitors are added simultaneously to cells in a ratio of the IC50 dose of each compound alone. […] Using this method, multiple FTI and FLT3 combinations were evaluated. […]
# (§3) Combination Index Analysis. To determine growth inhibition synergy of a FTI and FLT3 inhibitor combination based on the method of Chou and Talalay (Chou and Talalay. See Chou T C, Talalay P. (1984) “Quantitative analysis of dose-effect relationships: the combined effects of multiple drugs or enzyme inhibitors.” Adv Enzyme Regul. 22:27-55.), fixed ratio combination dosing with isobolar statistical analysis was performed. […]
# Baf3-ITD cells = experiment: 72-hour cell proliferation assay and combination index analysis, Baf3-ITD; format: cell-based, murine; details: with single sub-IC50 dose of FLT3 inhibitor Compound A (50 nM)
# Method: as §1, §2, §3
# [1] = patients with relapsed and refractory AML; cited from earlier work
smiles,measurement,setting,value
"Cn1cncc1C(N)(c1ccc(Cl)cc1)c1ccc2c(c1)c(-c1cccc(Cl)c1)cc(=O)n2C (single isomer, unassigned; (+)) [Tipifarnib, (+)-6-[amino(4-chlorophenyl)(1-methyl-1H-imidazol-5-yl)methyl]-4-(3-chlorophenyl)-1-methyl-2(1H)-quinolinone]",increase in potency of Tipifarnib,Baf3-FLT3 cells,more than 3 fold
same,increase in potency of Tipifarnib,Baf3-ITD cells,more than 3 fold
same,response rate,[1],~30%
